Reference: ChEMBL document CHEMBL1155836, “Discovery of imidazole carboxamides as potent and selective CCK1R agonists” (Bioorg Med Chem Lett, 2008)
Calls of active or inactive are those of the source. The calls are words filed in the database; no cut-off is given here.

Experiments:
[1] = system: Mus musculus; assay: Reduction in overnight food intake in lean mouse at 0.3 mg/kg, po; format: functional; parameters: scale not given: the % may be the effect or the level left
[2] = Volume of distribution in mouse at 1.0 mg/kg, iv and 10 mg/kg, po; format: ADME, organism-based; settings: in vivo
[3] = Half life in mouse at 1.0 mg/kg, iv and 10 mg/kg, po; format: ADME, organism-based; settings: in vivo
[4] = Oral bioavailability in mouse at 10 mg/kg; format: ADME, organism-based; settings: in vivo
[5] = system: Mus musculus; assay: Cmax in mouse at 1.0 mg/kg, iv and 10 mg/kg, po; format: ADME, organism-based; settings: in vivo
[6] = system: Mus musculus; assay: Reduction in overnight food intake in lean mouse at 3 mg/kg, po; format: functional; parameters: scale not given: the % may be the effect or the level left
[7] = target: Cholecystokinin receptor type A (Mus musculus, UniProt O08786); assay: Agonist activity against mouse CCK1 receptor; format: functional
Sequence of Cholecystokinin receptor type A (Mus musculus, UniProt O08786) (O08786 whole entry, looked up): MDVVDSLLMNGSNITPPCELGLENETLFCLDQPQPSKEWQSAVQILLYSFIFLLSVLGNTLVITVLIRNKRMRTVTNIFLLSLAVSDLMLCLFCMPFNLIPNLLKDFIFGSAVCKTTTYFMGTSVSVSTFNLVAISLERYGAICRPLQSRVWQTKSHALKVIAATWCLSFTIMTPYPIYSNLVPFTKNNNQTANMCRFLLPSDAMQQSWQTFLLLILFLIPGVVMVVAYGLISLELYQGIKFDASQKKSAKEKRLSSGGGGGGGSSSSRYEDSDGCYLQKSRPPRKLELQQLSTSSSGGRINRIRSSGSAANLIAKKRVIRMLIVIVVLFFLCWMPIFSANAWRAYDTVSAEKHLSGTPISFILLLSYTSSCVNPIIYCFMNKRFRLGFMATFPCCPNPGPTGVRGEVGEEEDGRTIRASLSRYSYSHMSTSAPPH

[8] = Clearance in mouse at 1.0 mg/kg, iv and 10 mg/kg, po; format: ADME, organism-based; settings: in vivo
[9] = target: T1, Gastrin/cholecystokinin type B receptor (Homo sapiens) (UniProt P32239); assay: Inhibition of human CCK2 receptor at 10000 nM
T1 sequence (whole entry): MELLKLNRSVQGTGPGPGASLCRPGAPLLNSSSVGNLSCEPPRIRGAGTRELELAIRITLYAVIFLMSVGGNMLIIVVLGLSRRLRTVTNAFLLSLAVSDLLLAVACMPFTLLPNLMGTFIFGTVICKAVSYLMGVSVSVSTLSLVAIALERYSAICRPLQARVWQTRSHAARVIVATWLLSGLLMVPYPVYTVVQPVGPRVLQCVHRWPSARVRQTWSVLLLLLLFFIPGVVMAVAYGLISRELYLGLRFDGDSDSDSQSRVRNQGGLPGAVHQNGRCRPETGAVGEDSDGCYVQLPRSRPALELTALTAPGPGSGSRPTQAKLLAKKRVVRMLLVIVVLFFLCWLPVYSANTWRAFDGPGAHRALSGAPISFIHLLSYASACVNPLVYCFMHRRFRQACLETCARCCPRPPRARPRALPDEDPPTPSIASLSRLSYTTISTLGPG

[10] = target: T2, Cholecystokinin receptor type A (Homo sapiens) (UniProt P32238); assay: Agonist activity against human CCK1 receptor assessed as receptor activation at 10000 nM; format: functional
T2 sequence (whole entry): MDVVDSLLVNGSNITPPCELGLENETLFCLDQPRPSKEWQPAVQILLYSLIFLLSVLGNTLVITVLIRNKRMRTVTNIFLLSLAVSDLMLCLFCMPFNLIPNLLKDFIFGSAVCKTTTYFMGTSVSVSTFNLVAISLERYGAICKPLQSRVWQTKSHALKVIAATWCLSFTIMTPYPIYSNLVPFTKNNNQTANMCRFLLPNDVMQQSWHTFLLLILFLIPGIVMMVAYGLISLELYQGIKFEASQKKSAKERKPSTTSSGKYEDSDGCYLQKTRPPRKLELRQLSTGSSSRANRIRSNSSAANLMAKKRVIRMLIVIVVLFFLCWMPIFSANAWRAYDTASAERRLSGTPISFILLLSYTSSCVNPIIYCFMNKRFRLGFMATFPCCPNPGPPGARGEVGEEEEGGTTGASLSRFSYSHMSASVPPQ

[11] = target: T1, Gastrin/cholecystokinin type B receptor (Homo sapiens); assay: Agonist activity against human CCK2 receptor; format: functional
[12] = target: T1, Gastrin/cholecystokinin type B receptor (Homo sapiens); assay: Agonist activity against human CCK2 receptor assessed as receptor activation at 10000 nM; format: functional
[13] = system: Mus musculus; assay: Gallbladder emptying activity in mouse assessed as reduction of gallbladder weight at 0.1 mg/kg, po; format: functional, organism-based; parameters: dose 0.1 mg/kg
[14] = system: Mus musculus; assay: Reduction in overnight food intake in wild-type mouse at 10 mg/kg; format: functional, organism-based; parameters: dose 10 mg/kg
[15] = system: Mus musculus; assay: Reduction in overnight food intake in CCK1 receptor deficient mouse at 10 mg/kg; format: functional, organism-based; parameters: dose 10 mg/kg
[16] = target: T3, Cholecystokinin receptor type A (Homo sapiens, UniProt P32238); assay: Inhibition of human CCK1 receptor
T3 sequence (P32238 whole entry): T2 sequence (whole entry)

[17] = target: T4, Gastrin/cholecystokinin type B receptor (Homo sapiens, UniProt P32239); assay: Inhibition of human CCK2 receptor
T4 sequence (P32239 whole entry): T1 sequence (whole entry)

[18] = target: T3, Cholecystokinin receptor type A; assay: Agonist activity against human CCK1 receptor; format: functional
[19] = system: Mus musculus; assay: Gallbladder emptying activity in mouse assessed as reduction of gallbladder weight at 0.3 mg/kg, po; format: functional; parameters: scale not given: the % may be the effect or the level left

SMILES	inhibition [9] [%]	Activity [10] [%]	Activity [11]	Activity [12] [%]	Activity [14]	Activity [15]	other results
CCOc1cccc(-n2cc(C(=O)N3CCN(c4cc(C(=O)[O-])c5ccccc5c4)CC3)nc2-c2ccc(C)cc2)c1.[Na+]							Activity [1]: 29%; Vd [2]: 0.56 L/kg; half-life [3]: 3.4 h; bioavailability [4]: 43%; Cmax [5]: 4.9 µM; Activity [6]: 78%; EC50 [7]: 0.78 nM; clearance [8]: 3.1 mL/min/kg
CCOc1cccc(-n2cc(C(=O)N3CCN(c4cnc5ccccc5c4)CC3)nc2-c2ccc(C)cc2)c1 [listing 1 of 2 here]	< 24	105	inactive	< 36			Activity [13]: inactive
CCOc1cccc(-n2cc(C(=O)N3CCN(c4cnc5ccccc5c4)CC3)nc2-c2ccc(C)cc2)c1 [listing 2 of 2 here]							IC50 [16]: 0.45 nM; IC50 [17]: > 10000 nM; EC50 [18]: 0.73 nM; Activity [19]: 59%

The next lines start with results.

inhibition [9] [%]	Activity [10] [%]	Activity [11]	Activity [12] [%]	SMILES	Activity [14]	Activity [15]	other results
< 24	105	inactive	< 36	CCOc1cccc(-n2cc(C(=O)N3CCN(c4cc(C(=O)O)c5ccccc5c4)CC3)nc2-c2ccc(C)cc2)c1	Active	inactive	
< 24	73	inactive	< 36	CCOc1cccc(-n2cc(C(=O)N3CCN(c4cc(C(=O)O)c5ccccc5c4)CC3)nc2-c2ccc(C)cc2F)c1	Active	inactive	
